Patent US11666645B2, “CD200 inhibitors and methods of use thereof” (REGENTS OF THE UNIVERSITY OF MINNESOTA, priority 2015, dated 2023)
Entries after “also recorded” stand apart in the source; their conditions may differ.

Assays:
[1] = tested on: Human immature dendritic cells; experiment: Human immature dendritic cells pulsed with P1 peptide or alanine-substituted versions, cytokine production; type: cell-based; conditions: human CD11b-derived immature dendritic cells (GM-CSF, IL4), supernatants
Method: FIGS. 13A-13B. Human CD11b cells were isolated. Purified CD11b cells were differentiated to immature dendritic cells using GM-CSF and IL4. Cells were pulsed with P1, P2, P3 and P4 CD200 inhibitors (see Table 2). Supernatants were analyzed for FIG. 13A) cytokine or FIG. 13B) chemokine production.
FIG. 16. Human CD11b cells were isolated and the purified CD11b cells were differentiated to immature dendritic cells using GM-CSF and IL4. Cells were pulsed with human P1 peptide, or a mutated version thereof comprising an alanine substitution (denoted by P1 and the amino acid substitution and position; e.g., P1A1, P1A2, P1A3, P1A4, P1A5, P1A6, etc.) (see, Table 2). Supernatants were analyzed for cytokine production.

[2] = tested on: splenocytes + OT-1 T cells; experiment: Splenocytes pulsed with OVA + inhibitor, OT-1 T cells added, cytokine production by flow cytometric bead array; type: cell-based, mouse; conditions: splenocytes pulsed 24 hours with OVA+inhibitor, 48 hours with OT-1 T cells
Method: FIGS. 11A-11B. Splenocytes were pulsed with OVA+an inhibitor peptide and incubated for 24 h. Following incubation, cells were washed, purified OT1 were added to wells and incubated for an additional 48 hours then analyzed for FIG. 11A) TNFa and IL-6 production; and FIG. 11B) IL-2 and IL-17 production. Error bars indicate +/−SEM (n=4/group; *P<0.05; ** P<0.01).
We hypothesize that the two different human CD200 inhibitor peptides (peptide 1=hP1 & peptide 2=hP2, table 2) are hitting different activation receptors on dendritic cells, although only one has been identified. […] We want to generate the immune response most beneficial for our patients. These conclusions were supported by experiments where splenocytes were pulsed with OVA+selected CD200 inhibitors (6061, 6069, 4004, 4006, 4013) for 24 hours. The splenocytes were then washed and cultured for 48 hours with the addition of OT-1 T cells. The cultures were then assessed for cytokine production using a flow cytometric bead array.

tumor bearing mice [3] = experiment: Prime-boost OVA vaccination of tumor bearing mice, SIINFEKL specific CD8+ T cell expansion by flow cytometry; type: in vivo, mouse; conditions: tumor bearing mice vaccinated with OVA+Poly:ICLC +/- inhibitor, whole blood
Method: FIGS. 3A-3B. FIG. 3A) Vaccination scheme. FIG. 3B) Tumor bearing or non-tumor bearing mice were vaccinated on day 2 and 8 with an agonist (4012) or CD200 inhibitor (6059) only, and on days 3-6 and […] with OVA+Poly:ICLC +/− the agonist (4012) or CD200 inhibitor (6059). B) Mice were bled on day 10, whole blood was stained with an anti-CD8 and SIINFEKL specific detramer (SEQ ID NO: 18), lysed and analyzed by flow cytometry.
(§1) FIGS. 12A-12C. CD200 inhibitor reverses the suppressive effects of the tumor environment. Tumor and non-tumor bearing mice were vaccinated with OVA+Poly:ICLC +/− the CD200 inhibitor 6059 and analyzed for FIG. 12A) SIINFEKL/Kb^+CD8^+ T cell expansion (“SIINFEKL” disclosed as SEQ ID NO: 18). FIG. 12B) Lymphocytes were harvested and stimulated with SIINFEKL peptide (SEQ ID NO: 18). Supernatants were analyzed for TNFα and IFNγ secretion. FIG. 12C) The CD200 inhibitor 6059 was added to OVA+exosomes. Error bars indicate +/−SEM (n=4/group; *P<0.05; by t-test).
(§2) These experiments support the hypothesis that exosomes express the CD200 protein thereby inhibiting the ability to prime a T cell response in the draining lymph nodes of glioma bearing mice. Other CD200 inhibitors were similarly evaluated (FIGS. 3A-3B, 9A-9B and 24A-24B).

tumor bearing mice [4] = experiment: Recall response: lymphocytes of vaccinated tumor bearing mice restimulated with OVA/SIINFEKL, cytokine release; type: in vivo, mouse; conditions: lymphocytes from cervical lymph nodes of vaccinated tumor bearing mice restimulated, supernatant after 48 hrs
Text: FIGS. 4A-4B. Tumor bearing or non-tumor bearing mice were vaccinated on day 2 and 8 with an agonist or CD200 inhibitor only, and on days 3-6 and 10 with OVA+Poly:ICLC +/− the CD200 inhibitor 6059. On day 10, were harvested and stimulated with OVA protein to measure a recall response via cytokine release. FIG. 4A) TNF alpha (PG/ML) levels from tumor bearing mice. FIG. 4B) IFN gamma (PG/ML) levels in tumor bearing mice.
as §1, §2

glioma-derived exosomes = experiment: Vaccination of non-tumor bearing mice with OVA + glioma-derived exosomes +/- inhibitor; type: in vivo, mouse; conditions: OVA+glioma-derived exosomes+antagonist
Method: as §1, §2

GL261 tumor bearing mice [5] = experiment: GL261 glioma model, inhibitor inoculated into the tumor site in the brain, then tumor lysate + inhibitor; type: in vivo, mouse; conditions: 10 μg inhibitor in the brain at tumor coordinates on day 2, then weekly tumor lysate + inhibitor
Method: Tumor-bearing mice were inoculated in the brain with 10 μg of the inhibitor 6059 at the same coordinates at which the tumor was injected two days previously. This was followed by weekly injections of tumor lysate+inhibitor (FIGS. 5A-5B).

GL261 tumor bearing mice [6] = experiment: GL261 glioma model, vaccination with tumor lysate +/- CD200 inhibitor, tumor growth and survival
Method: FIG. 5B) Mice were imaged weekly for tumor growth. The following groups were studied: saline (1), tumor lysate (2), and tumor lysate+CD200 inhibitor (6059) (3). FIG. 5C) Percent survival post inoculation for saline (1), tumor lysate (2), and tumor lysate+CD200 inhibitor (3) groups.
In vivo survival study. […] All vaccinations were administered in the back of the neck in tumor bearing mice.

PPIA = PPIA production in monocytes with CD200 inhibitor; type: cell-based; conditions: peptide binds the CD200 activating receptor
Text: FIGS. 18A-18E. Experimental Model. CD200 is solubilized from the tumor or endothelial interacting on its receptor (CD200R). This CD200/CD200R interaction induces the upregulation of PPIA through the MYC pathway decreasing TNF alpha and IL2 production needed for an immune response (FIG. 18A).
These antagonist have been reported to reverse the differentiation to as myeloid-derived suppressor cells following interaction with soluble CD200 (FIG. 18C) (Moertel et al., J Immunother Can; 2(1):46) and in vivo (FIG. 23). The mechanism of […] protein inhibition has been determined through the upregulation of an immunosuppressive protein PPIA (FIGS. 18A-18E) which is inhabited with the use of the CD200 inhibitor P1A12.

Question: How did the “Cytokine production (response) vs human P1 peptide” value [1] turn out when SQKVSATACLTLY [hP1A6] was run?
Answer: The value was “enhanced TNF-α and IL-β production”.

Question: And the “Cytokine production (response) vs human P1 peptide” value ([1]; listed as P1A6)?
Answer: The value was “significantly enhanced response”.

Question: Which “Cytokine profile (TNFa, IL-6, IL-2, IL-17)” value [2] does the source give for “SQKVSGTACLTLY [Inhibitor 4006, P3 in b288]” here?
Answer: The value was “different cytokine profiles”.

Question: Which “SIINFEKL specific CD8+ T cell expansion: effect on tumor induced suppression” value (tumor bearing mice [3]) does the source give for NTIGDGGCY [Inhibitor 6059] here?
Answer: Its value is “reversed tumor induced suppression; also recorded: reversed the suppressive effects of the tumor microenvironment; also recorded: reversed the suppressive effects in tumor-bearing mice”.

Question: And the “Recall response via cytokine release (TNF alpha, IFN gamma): effect on tumor induced suppression” value (tumor bearing mice [4])?
Answer: The value was “modulate/reverse glioma-induced suppression; also recorded: reversed the suppressive effects of the tumor microenvironment”.

Question: What about the “Suppression induced by exosomes” value (glioma-derived exosomes) of the same sequence?
Answer: The value was “partially reversed the suppression induced by exosomes”.

Question: What about the “Tumor growth after inhibitor into the tumor site in the CNS” value (GL261 tumor bearing mice [5]) of the same sequence?
Answer: Its value is “Tumor growth was delayed”.

Question: What about the Survival benefit (GL261 tumor bearing mice [6]; GL261 mice vaccinated weekly with tumor lysates + inhibitor vs saline or tumor lysates) of the same sequence?
Answer: Its Survival benefit is “increased survival benefit”.

Question: What about the Tumor growth (GL261 tumor bearing mice [6]; GL261 mice, tumor lysate (65 μg) + inhibitor (50 μg), imaged weekly, vs saline or tumor lysate) of the same sequence?
Answer: The Tumor growth was “slowed tumor growth”.

Question: What about the Enhancement of survival (GL261 tumor bearing mice [6]; GL261 mice, tumor lysate (65 μg) + inhibitor (50 μg), vs saline or tumor lysate) of the same sequence?
Answer: The Enhancement of survival was 30%.

Question: For TASLRCSLKTSQE [Inhibitor 4004], which “Cytokine profile (TNFa, IL-6, IL-2, IL-17)” value [2] is on record?
Answer: Its value is “different cytokine profiles”.

Question: “VTWQKKKAVSPAN [Inhibitor P1A12, P1 in b288]” was tested. Which “Production of PPIA” value (PPIA) did it give?
Answer: The value was “inhibits the production of PPIA”.
